Test results from ChEMBL document CHEMBL6109121, “Discovery of Novel Sulfonylurea NLRP3 Inflammasome Inhibitor for the Treatment of Multiple Inflammatory Diseases” (J Med Chem, 2025).
Active and inactive are the calls of the source. No cut-off for these calls is given here.

Assays:
[1] = test system: BMDM; experiment: Inhibition of AIM2 inflammasome activation in LPS/Poly dA:dT-stimulated male C57BL/6J mouse BMDM cells assessed as inhibition of IL-1beta secretion pretreated with LPS followed by compound addition for 4 hrs and measured after 4 hrs of Poly dA:dT addition by ELISA; assay type: cell-based; settings: time 8.0 hrs
[2] = test system: BMDM; experiment: Inhibition of NLRP3 inflammasome activation at initiation phase in LPS/ATP-stimulated male C57BL/6J mouse BMDM cells assessed as inhibition of TNF-alpha secretion […] for 4 hrs followed by compound administration for 30 mins and measured after 1 hrs of ATP addition by ELISA; assay type: cell-based; settings: time 1.5 hrs
[3] = Half-life in male ICR (CD-1) mouse at 5 mg/kg, iv by LC-MS/MS analysis; assay type: ADME, organism-based; settings: in vivo
[4] = AUClast in male ICR (CD-1) mouse at 5 mg/kg, iv by LC-MS/MS analysis; assay type: ADME, organism-based; settings: in vivo
[5] = test system: Mus musculus; experiment: Anti-inflammatory activity in LPS/ATP-induced acute peritonitis male C57BL/6J mouse model assessed as survival rate at 20 mg/kg, po preadministered with compound for 1 hrs followed by LPS addition for 2 hrs and further administered with ATP and measured 21 hrs post LPS administration relative to control; assay type: functional; settings: time 22 hrs
[6] = test system: Mus musculus; experiment: Effect on HDL-C level in serum of HFD-fed STZ-induced diabetic kidney disease male C57BL/6J mouse model at 20 mg/kg fed with high fat diet for 4 weeks followed by STZ administration for 5 days and measured 6 weeks post compound administration via gavage; assay type: functional, organism-based
[7] = Drug uptake in lung of male C57BL/6J mouse at 20 mg/kg, po administered as single dose and measured after 8 hrs by LC-MS/MS analysis; assay type: ADME, organism-based; settings: in vivo
[8] = test system: Mus musculus; experiment: Anti-colitis activity in DSS-induced acute ulcerative colitis male C57BL/6J mouse model assessed as reduction in body weight loss at 5 mg/kg, po preadministered with DSS for 7 days followed by 3 days of drinking water and measured after 10 days of compound administration; assay type: functional, organism-based; settings: time 10.0 day
[9] = test system: Mus musculus; experiment: (§1) Anti-colitis activity in DSS-induced acute ulcerative colitis male C57BL/6J mouse model assessed as improvement in stool consistency at 0.2 to 5 mg/kg, po preadministered with DSS for 7 days followed by 3 days of drinking water and measured after 10 days of compound administration; assay type: functional, organism-based; settings: dose 0.2-5 mg/kg, time 10.0 day
[10] = test system: Mus musculus; experiment: Anti-colitis activity in DSS-induced acute ulcerative colitis male C57BL/6J mouse model assessed as decrease in disease activity index score at 0.2 to 5 mg/kg, po preadministered with DSS for 7 days followed by 3 days of drinking water and measured after 10 days of compound administration; assay type: functional, organism-based; settings: dose 0.2-5 mg/kg, time 10.0 day
[11] = test system: Mus musculus; experiment: as §1, with “reduction” for “improvement”, “depletion of goblet cells in colon” for “stool consistency”, “administration by H and E staining based analysis” for “administration”; assay type: functional, organism-based; settings: dose 0.2-5 mg/kg, time 10.0 day
[12] = test system: Mus musculus; experiment: Anti-colitis activity in DSS-induced acute ulcerative colitis male C57BL/6J mouse model assessed as reduction in histologic severity score at 0.2 to 5 mg/kg, po preadministered with DSS for 7 days followed by 3 days of drinking water and measured after 10 days of compound administration; assay type: functional, organism-based; settings: dose 0.2-5 mg/kg, time 10.0 day
[13] = test system: Mus musculus; experiment: Effect on TNF-alpha level in serum of DSS-induced acute ulcerative colitis male C57BL/6J mouse model at 0.2 to 5 mg/kg, po preadministered with DSS for 7 days followed by 3 days of drinking water and measured after 10 days of compound administration by ELISA; assay type: functional, organism-based; settings: dose 0.2-5 mg/kg, time 10.0 day

## CN1CCC(N(C)S(=O)(=O)NC(=O)Nc2c3c(cc4c2CCC4)CCC3)CC1
[1]
  inhibition: inactive
[2]
  inhibition: inactive
[3]
  half-life: 3.63 h
[4]
  AUC(0-t): 14500 ng·h/mL
[5]
  survival at 20 mg/kg: 100%
[6]
  Activity: inactive
[7]
  Drug uptake: Active
[8]
  Activity: Active; Significant Difference Not Observed
[9]
  Activity: Active
[10]
  Activity: Active
[11]
  Activity: Active
[12]
  Activity: Active
[13]
  Activity: inactive
